Source: patent US20240384268A1, “Oligonucleotides” (Hudson Institute of Medical Research, priority 2021, published 2024)
In the oligonucleotide strings, read from the 5' end, every base follows the letter of its sugar. An asterisk marks phosphorothioate; unmarked linkages are phosphodiester. Other units and linkages are bracketed, terminal groups are in braces. A string of capitals states the bases alone. d = 2'-deoxy (DNA); m = 2'-O-methyl

Target: T1, TLR8 (Homo sapiens, UniProt Q9NR97)
T1 sequence (Q9NR97 27-1041): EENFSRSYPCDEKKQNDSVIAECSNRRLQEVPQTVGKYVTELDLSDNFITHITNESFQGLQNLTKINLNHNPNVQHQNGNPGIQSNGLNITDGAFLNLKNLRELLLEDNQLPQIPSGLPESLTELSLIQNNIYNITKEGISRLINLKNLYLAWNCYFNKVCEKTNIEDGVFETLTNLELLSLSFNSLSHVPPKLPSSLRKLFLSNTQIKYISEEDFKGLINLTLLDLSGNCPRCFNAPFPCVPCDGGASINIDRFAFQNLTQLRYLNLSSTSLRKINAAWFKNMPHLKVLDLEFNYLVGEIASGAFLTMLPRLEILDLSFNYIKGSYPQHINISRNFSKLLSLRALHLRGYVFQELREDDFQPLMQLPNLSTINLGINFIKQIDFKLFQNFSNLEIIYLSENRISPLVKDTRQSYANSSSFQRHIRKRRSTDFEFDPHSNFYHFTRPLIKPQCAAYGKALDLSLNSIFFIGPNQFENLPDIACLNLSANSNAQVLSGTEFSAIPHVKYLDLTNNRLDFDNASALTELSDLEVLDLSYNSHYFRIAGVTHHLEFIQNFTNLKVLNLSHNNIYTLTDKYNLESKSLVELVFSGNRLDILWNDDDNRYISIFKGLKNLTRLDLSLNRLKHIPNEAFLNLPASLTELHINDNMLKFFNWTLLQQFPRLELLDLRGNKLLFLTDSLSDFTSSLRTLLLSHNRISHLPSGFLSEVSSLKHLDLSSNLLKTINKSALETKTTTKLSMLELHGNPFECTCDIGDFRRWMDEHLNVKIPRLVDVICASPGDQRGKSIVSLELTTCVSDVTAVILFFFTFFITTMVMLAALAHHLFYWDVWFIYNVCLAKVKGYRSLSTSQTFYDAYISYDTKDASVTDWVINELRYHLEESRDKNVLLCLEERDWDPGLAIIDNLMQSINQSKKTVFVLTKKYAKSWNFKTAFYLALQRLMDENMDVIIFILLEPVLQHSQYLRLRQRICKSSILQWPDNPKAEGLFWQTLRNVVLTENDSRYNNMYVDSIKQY
Test: HEK-TLR8 NF-κB-luciferase reporter, R848 or Motolimod stimulation (potentiation or inhibition)
Format: cell-based
Set-up: expressed in transfected cells; host or cells: 293XLhTLR8 (HEK293)
Conditions: for TLR8-500 nM: averaged NF-κB-Luciferase relative to R848: HEK-TLR8, 500 nM ASO, fold increase relative to R848 without ASO (Alharbi et al., 2020); for TLR8 100 nM: MOE-modified ASO at 100 nM; for TLR8 100 nM / TLR8 500 nM: averaged NF-κB-Luciferase relative to R848 condition (fold increase); for TLR8 500 nM: MOE-modified ASO at 500 nM

Substance	TLR8-500 nM: averaged NF-κB-Luciferase relative to R848 [fold]	TLR8 100 nM	TLR8 500 nM
mG*mG*mG*mU*mC*T*C*C*T*C*C*A*C*A*C*mC*mC*mU*mU*mC (GGGUCTCCTCCACACCCUUC; antisense; sugars from the 5' end m5 d10 m5, all phosphorothioate, methylation of C not given here) [[LINC-PINT]128]	1.23	–	–
mG*mG*mU*mG*mG*C*C*A*C*A*G*G*C*A*A*mC*mG*mU*mC*mA (GGUGGCCACAGGCAACGUCA; antisense; sugars from the 5' end m5 d10 m5, all phosphorothioate, methylation of C not given here) [[CDKN2B-AS1]2196]	0.98	–	–
GGGTATCGAAAGAGTCTGGA (antisense; 2'-MOE modified, pattern not given here) [EGFR-3908 MOE]	–	3.138	4.073
mC*mA*mC*mU*mG*T*A*T*T*T*T*A*T*T*A*mC*mA*mG*mA*mA (mC*mA*mC*mU*mG*dT*dA*dT*dT*dT*dT*dA*dT*dT*dA*mC*mA*mG*mA*mA; antisense) [[LINC-PINT]2990]	4.86	–	–
mA*mA*mA*mG*mA*T*T*A*T*C*T*T*C*T*T*mU*mU*mA*mA*mU (mA*mA*mA*mG*mA*dT*dT*dA*dT*dC*dT*dT*dC*dT*dT*mU*mU*mA*mA*mU) [[CDKN2B-AS1]2132]	5.04	–	–
mU*mG*mG*mC*mG*T*A*G*T*T*T*C*T*C*T*mU*mC*mC*mU*mC (mU*mG*mG*mC*mG*dT*dA*dG*dT*dT*dT*dC*dT*dC*dT*mU*mC*mC*mU*mC; antisense) [[LINC-PINT]937.1]	4.25	–	–
mU*mC*mU*mC*mU*C*T*G*G*T*C*C*C*A*T*mC*mC*mC*mU*mU (mU*mC*mU*mC*mU*dC*dT*dG*dG*dT*dC*dC*dC*dA*dT*mC*mC*mC*mU*mU; antisense) [[LINC-PINT]110]	11.27	–	–
mU*mC*mU*mC*mC*A*T*G*T*C*C*C*A*G*G*mC*mC*mU*mC*mC (mU*mC*mU*mC*mC*dA*dT*dG*dT*dC*dC*dC*dA*dG*dG*mC*mC*mU*mC*mC; antisense) [[CDKN2B-AS1]2230]	9.17	–	–
mC*mC*mU*mU*mC*T*G*C*T*G*C*C*A*A*G*mC*mC*mC*mC*mA (mC*mC*mU*mU*mC*dT*dG*dC*dT*dG*dC*dC*dA*dA*dG*mC*mC*mC*mC*mA; antisense) [[LINC-PINT]94]	3.71	–	–
mG*mU*mC*mC*mC*A*G*G*C*C*T*C*C*A*G*mU*mG*mU*mC*mU (mG*mU*mC*mC*mC*dA*dG*dG*dC*dC*dT*dC*dC*dA*dG*mU*mG*mU*mC*mU; antisense) [[CDKN2B-AS1]2223]	2.17	–	–
mA*mG*mA*mA*mA*G*A*A*G*C*A*A*A*G*A*mU*mU*mC*mA*mA (AGAAAGAAGCAAAGAUUCAA; sugars from the 5' end m5 d10 m5, all phosphorothioate, methylation of C not given here) [[CDKN2B-AS1]1519]	2.78	–	–
mC*mA*mG*mG*mC*C*T*C*C*A*G*T*G*T*C*mU*mU*mC*mU*mC (mC*mA*mG*mG*mC*dC*dT*dC*dC*dA*dG*dT*dG*dT*dC*mU*mU*mC*mU*mC; antisense) [[CDKN2B-AS1]2219]	3.89	–	–
AGTCGTAGTTGCTTCCTAAC (antisense; 2'-MOE modified, pattern not given here) [MB21D1-1181 MOE]	–	3.091	5.889
CGGCATCCACCACGTCGTCC (antisense; 2'-MOE modified, pattern not given here) [EGFR-3267 MOE]	–	1.249	0.903
CGGAGGTCTTGGCTTCGTGG (antisense; 2'-MOE modified, pattern not given here) [MB21D1-525 MOE]	–	2.197	3.257
mC*mC*mU*mA*mG*A*A*A*G*A*A*G*C*A*A*mA*mG*mA*mU*mU (mC*mC*mU*mA*mG*dA*dA*dA*dG*dA*dA*dG*dC*dA*dA*mA*mG*mA*mU*mU) [[CDKN2B-AS1]1522]	4.94	–	–
mA*mG*mG*mC*mC*T*C*C*A*G*T*G*T*C*T*mU*mC*mU*mC*mC (mA*mG*mG*mC*mC*dT*dC*dC*dA*dG*dT*dG*dT*dC*dT*mU*mC*mU*mC*mC; antisense) [[CDKN2B-AS1]2218]	4.66	–	–

Substance	TLR8-500 nM: averaged NF-κB-Luciferase relative to R848 [fold]	TLR8 100 nM	TLR8 500 nM
mC*mC*mA*mU*mG*T*C*C*C*A*G*G*C*C*T*mC*mC*mA*mG*mU (CCAUGTCCCAGGCCTCCAGU; sugars from the 5' end m5 d10 m5, all phosphorothioate, methylation of C not given here) [[CDKN2B-AS1]2227]	1.46	–	–
TGGGCTGGAATCCGAGTTAT (antisense; 2'-MOE modified, pattern not given here) [EGFR-4705 MOE]	–	1.452	2.058
mG*mU*mC*mA*mA*A*C*C*T*A*G*A*A*A*G*mA*mA*mG*mC*mA (mG*mU*mC*mA*mA*dA*dC*dC*dT*dA*dG*dA*dA*dA*dG*mA*mA*mG*mC*mA; antisense) [[CDKN2B-AS1]1528]	1.85	–	–
mC*mC*mC*mU*mA*A*T*G*C*T*T*T*C*C*T*mC*mU*mC*mC*mA (mC*mC*mC*mU*mA*dA*dT*dG*dC*dT*dT*dT*dC*dC*dT*mC*mU*mC*mC*mA; antisense) [[LINC-PINT1877 KL]	8.39	–	–
mC*mA*mU*mC*mC*C*T*T*C*T*G*C*T*G*C*mC*mA*mA*mG*mC (mC*mA*mU*mC*mC*dC*dT*dT*dC*dT*dG*dC*dT*dG*dC*mC*mA*mA*mG*mC; antisense) [[LINC-PINT]98]	8.23	–	–
mC*mU*mU*mC*mU*C*T*C*T*G*G*T*C*C*C*mA*mU*mC*mC*mC (mC*mU*mU*mC*mU*dC*dT*dC*dT*dG*dG*dT*dC*dC*dC*mA*mU*mC*mC*mC) [[LINC-PINT]112]	9.21	–	–
mC*mA*mA*mG*mC*C*C*C*A*G*C*G*T*T*C*mC*mU*mC*mC*mG (mC*mA*mA*mG*mC*dC*dC*dC*dA*dG*dC*dG*dT*dT*dC*mC*mU*mC*mC*mG; antisense) [[LINC-PINT]83.1]	4.44	–	–
TTTGCACACTTCGTACCCAA (antisense; 2'-MOE modified, pattern not given here) [CAMSAP1-4916 MOE]	–	1.877	2.199
mU*mU*mC*mU*mC*T*C*T*G*G*T*C*C*C*A*mU*mC*mC*mC*mU (mU*mU*mC*mU*mC*dT*dC*dT*dG*dG*dT*dC*dC*dC*dA*mU*mC*mC*mC*mU; antisense) [[LINC-PINT]111]	9.51	–	–
mG*mU*mC*mU*mC*C*T*C*C*A*C*A*C*C*C*mU*mU*mC*mU*mC (mG*mU*mC*mU*mC*dC*dT*dC*dC*dA*dC*dA*dC*dC*dC*mU*mU*mC*mU*mC; antisense) [[LINC-PINT]126]	7.17	–	–
ATGCCATCCACTTGATAGGC (antisense; 2'-MOE modified, pattern not given here) [EGFR-2874 MOE]	–	2.028	2.025
mC*mC*mU*mU*mC*T*C*T*C*T*G*GT*C*C*mC*mA*mU*mC*mC (CCUUCTCTCTGGTCCCAUCC; antisense; chemistry not fully specified) [[LINC-PINT]113]	3.51	–	–
mG*mG*mU*mC*mU*C*C*T*C*C*A*C*A*C*C*mC*mU*mU*mC*mU (mG*mG*mU*mC*mU*dC*dC*dT*dC*dC*dA*dC*dA*dC*dC*mC*mU*mU*mC*mU; antisense) [[LINC-PINT]127]	3.72	–	–
mU*mC*mC*mC*mA*A*C*T*C*T*T*C*T*A*A*mC*mU*mC*mG*mU (mU*mC*mC*mC*mA*dA*dC*dT*dC*dT*dT*dC*dT*dA*dA*mC*mU*mC*mG*mU; antisense) [[LINC-PINT]1284 KL]	13.35	–	–
GTCCAAGATCAGCAGTCTCA (antisense; 2'-MOE modified, pattern not given here) [CTNN2B-2341 MOE]	–	3.021	3.364
mA*mA*mU*mA*mU*C*T*G*C*T*G*C*C*C*A*mC*mC*mU*mU*mC (mA*mA*mU*mA*mU*dC*dT*dG*dC*dT*dG*dC*dC*dC*dA*mC*mC*mU*mU*mC; antisense) [[CDKN2B-AS1]832]	4.45	–	–
